Tested on: AMPK
Assay: AMPK enzyme activity assay (Delfia technology, AMARA peptide substrate)
Type: biochemical
Conditions: compound at 30 μM vs AMP at 200 μM
Method in brief: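 Value is the ratio of compound (30 μM) to AMP (200 μM) response, each as % of basal control. Phosphorylation of the AMARA peptide after AMPK addition was read by Delfia with an anti-phosphoserine antibody.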

SMILES	Activity: Ratio between the % of control (basal activity) of compound of formula (1) at 30 μM and the % of control (basal activity) of AMP (natural substrate) at 200 μM
Cc1cccc(C2(C)C(=O)Nc3sc(Cl)c(-c4ccc(F)cc4)c3C2=O)c1 (stereo not drawn) [No 83, 2-chloro-3-(4-fluorophenyl)-5-methyl-5-(m-tolyl)-7H-thieno[2,3-b]pyridine-4,6-dione]	A (0%<A<50%)
COc1ccc(C2(C)C(=O)Nc3sc(Cl)c(-c4ccccc4F)c3C2=O)cc1 (stereo not drawn) [No 84, 2-chloro-3-(2-fluorophenyl)-5-(4-methoxyphenyl)-5-methyl-7H-thieno[2,3-b]pyridine-4,6-dione]	B (50%≦B<75%)
COc1ccc(-c2c(Cl)sc3c2C(=O)C(C)(c2cccc(F)c2)C(=O)N3)cc1 (stereo not drawn) [No 85, 2-chloro-5-(3-fluorophenyl)-3-(4-methoxyphenyl)-5-methyl-7H-thieno[2,3-b]pyridine-4,6-dione]	A (0%<A<50%)
COc1ccc(-c2c(Cl)sc3c2C(=O)C(C)(c2ccc(OC)cc2)C(=O)N3)cc1 (stereo not drawn) [No 86, 2-chloro-3,5-bis(4-methoxyphenyl)-5-methyl-7H-thieno[2,3-b]pyridine-4,6-dione]	A (0%<A<50%)
COc1ccc(-c2c(Cl)sc3c2C(=O)C(C)(c2cccc(C)c2)C(=O)N3)cc1 (stereo not drawn) [No 87, 2-chloro-3-(4-methoxyphenyl)-5-methyl-5-(m-tolyl)-7H-thieno[2,3-b]pyridine-4,6-dione]	A (0%<A<50%)
COc1ccc(-c2c(Cl)sc3c2C(=O)C(C)(c2cccc(OC)c2)C(=O)N3)cc1 (stereo not drawn) [No 88, 2-chloro-5-(3-methoxyphenyl)-3-(4-methoxyphenyl)-5-methyl-7H-thieno[2,3-b]pyridine-4,6-dione]	A (0%<A<50%)
CC1(c2ccccc2F)C(=O)Nc2sc(Cl)c(-c3ccccc3F)c2C1=O (stereo not drawn) [No 89, 2-chloro-3,5-bis(2-fluorophenyl)-5-methyl-7H-thieno[2,3-b]pyridine-4,6-dione]	A (0%<A<50%)
CC1(c2cccc(F)c2)C(=O)Nc2sc(Cl)c(-c3ccccc3F)c2C1=O (stereo not drawn) [No 90, 2-chloro-3-(2-fluorophenyl)-5-(3-fluorophenyl)-5-methyl-7H-thieno[2,3-b]pyridine-4,6-dione]	A (0%<A<50%)
CC1(c2ccc(F)cc2)C(=O)Nc2sc(Cl)c(-c3ccccc3F)c2C1=O (stereo not drawn) [No 91, 2-chloro-3-(2-fluorophenyl)-5-(4-fluorophenyl)-5-methyl-7H-thieno[2,3-b]pyridine-4,6-dione]	A (0%<A<50%)
Cc1cccc(C2(C)C(=O)Nc3sc(Cl)c(-c4ccccc4F)c3C2=O)c1 (stereo not drawn) [No 92, 2-chloro-3-(2-fluorophenyl)-5-methyl-5-(m-tolyl)-7H-thieno[2,3-b]pyridine-4,6-dione]	A (0%<A<50%)
O=C1Nc2sc(Cl)c(-c3ccncc3)c2C(=O)C1(F)c1ccccc1 (stereo not drawn) [No 93, 2-chloro-5-fluoro-5-phenyl-3-(4-pyridyl)-7H-thieno[2,3-b]pyridine-4,6-dione]	A (0%<A<50%)
COc1cccc(-c2c(Cl)sc3c2C(=O)C(F)(c2ccccc2)C(=O)N3)c1 (stereo not drawn) [No 94, 2-chloro-5-fluoro-3-(3-methoxyphenyl)-5-phenyl-7H-thieno[2,3-b]pyridine-4,6-dione]	C (C≧75%)
